Source: PMC6370745, “Positive Regulation of Spoilage Potential and Biofilm Formation in Shewanella baltica OS155 via Quorum Sensing System Composed of DKP and Orphan LuxRs” (Frontiers in Microbiology, 2019)

Target: T1, LuxR01 (Shewanella baltica, UniProt A3CYS4)
T1 construct: gene Sbal_0102
T1 sequence (A3CYS4 1-175): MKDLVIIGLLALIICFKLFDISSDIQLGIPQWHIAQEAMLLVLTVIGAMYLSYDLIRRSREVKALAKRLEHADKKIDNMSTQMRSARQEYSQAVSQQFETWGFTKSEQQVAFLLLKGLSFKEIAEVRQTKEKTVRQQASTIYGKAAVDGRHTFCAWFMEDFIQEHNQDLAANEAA
Assay: FLAG bead pull-down from ligand mixture, UHPLC-MS/MS
Format: binding
Conditions: mixture of C4-HSL, C6-HSL, PL, LL and PP, 1 uM, PBS, 4 °C, 1 h; empty-vector control

**Q.** O=C1N[C@@H](Cc2ccccc2)C(=O)N2CCC[C@@H]12 [PP, cyclo-(L-Pro-L-Phe)] was tested. Which “FLAG bead pull-down from ligand mixture, UHPLC-MS/MS” value did it give?
**A.** PP was detected in LuxR01 and LuxR02 protein binding system
